pEC50: −log10 of the molar value.
tested on: Bmi-1; assay: Sandwich ELISA Assay (Bmi-1 ELISA) in HT-1080 cells; format: cell-based
Description: Cell Seeding and Compound Treatment (Day 1):
HT-1080 cells were seeded at 8000 cells/well (50 μL) in 96-well tissue culture plates. After the cells became adherent (3-4 hours), 2× diluted stocks of test compounds in 50 μL DMEM containing 1% DMSO (final DMSO concentration was 0.5%) were added and the plates were incubated at 37° C. under 5% CO2 for 40-48 hours.
ELISA Plate First Antibody Preparation (Day 2):
The First Antibody (Millipore Mouse, monoclonal to mouse Bmi-1, clone F6, catalog #05-637) diluted to 2 μg/mL in PBS was added (100 μL) to each well of a Nunc MaxiSorp 96-well ELISA plate. The plate was covered with a plate seal and allowed to stand overnight.
Cell Lysate Preparation (Day 3):
Fresh 1× Lysis buffer was prepared on the day of the assay as follows: 1 mM EDTA, 150 mM NaCl, 0.5% Triton-X 100, 10 mM NaF, 20 mM B-Glycerophosphate, 1 mM DTT (in PBS, pH 7.2-7.4) and 1× HALT protease inhibitor cocktail (Pierce #78410).
The 1× Lysis Buffer (40 μL) was added to each well and the plate was shaken for 5-10 minutes on an orbital shaker to allow cell lysis, then diluent (1% BSA in PBS in 0.5% NP40) (100 μL) was added to each well.
A standard curve was prepared at the following Bmi-1 concentrations: 8000, 4000, 2000, 1000, 500, 250, 125, 0 pg/mL The Bmi-1 Recombinant Protein Standard (Novus Biologicals PCGF4 Recombinant Protein (P01), catalog #H00000648-P01) used to prepare the standard curve was stored at −80° C. On first thaw, the Bmi-1 Recombinant Protein Standard was diluted to […] in Blocking Buffer (1% BSA in PBS; BSA: Fisher Scientific Catalog #1600-100). Aliquots were taken and refrozen at −80° C. The aliquots may be kept at 4° C. and reused after first thaw, but only within 1-2 weeks. The Bmi-1 Recombinant Protein Standard contains a GST-fusion tag that appears around 70 Kda on Western Blot.
The prepared ELISA plate was washed 3× with Wash Buffer (0.05% Tween-20 in PBS). The final wash was removed from the plate and the plate was blotted dry. Blocking Buffer (300 μL) (1% BSA in PBS) was added to each well. The plate was covered with a plate seal and incubated at room temperature for 1 hour. The blocked plate was washed 3× with Wash Buffer, then the final wash was removed and the plate was blotted dry. The previously prepared samples and standards were added (100 μL/well) and the plate was covered with a plate seal and incubated at 4° C. overnight.
The prepared ELISA plate was removed from 4° C., incubated at room temperature for 30 minutes, then washed and blotted dry as previously described for Day 3. The Second Antibody (Cell Signaling Rabbit anti-Bmi-1, Cat #2830) diluted to 1:600 in Blocking Buffer was added (100 μL) to each well, except as needed for background control wells. The plate was covered with a plate seal and incubated for 1.5 hrs at room temperature.
The ELISA plate was washed and blotted dry as previously described. The Third Antibody (Cell Signaling HRP conjugated anti-rabbit IgG (CellSignaling, Cat #:7074) diluted to 1:300 in Blocking Buffer was added (100 μL) to each well, except as needed for background control wells. The plate was incubated for 1 hr at room temperature.
The plate was washed and blotted dry as previously described, then prepared TMB substrate (TMB substrate kit, Pierce catalog #34021) (prepared by mixing kit reagents 1:1) (100 μL) was added per well. The plate was incubated for 20-30 minutes at room temperature in the dark, then Stop Solution (2 M sulfuric acid in water) (50 μL) was added per well. The plates were read at OD450 (experimental) and OD570 (reference).

How did the pEC50 turn out when `COc1ccc(Nc2ccnc(-c3c(C(F)(F)F)nn4ccccc34)n2)cc1` [Cpd 60, N-(4-methoxyphenyl)-2-[2-(trifluoromethyl)pyrazolo[1,5-a]pyridin-3-yl]pyrimidin-4-amine] was run?
The pEC50 was 7.00 to 8.00.

`Cc1nc2ccccc2n1-c1nccc(Nc2ccc(OC(F)F)cc2)n1` [Cpd 61, N-[4-(difluoromethoxy)phenyl]-2-(2-methyl-1H-benzimidazol-1-yl)pyrimidin-4-amine] was tested. Which pEC50 did it give?
The pEC50 was 5.52 to 7.00.

With `Cc1ccc(Nc2ccnc(-c3c(C(F)(F)F)nc4cnccn34)n2)cc1` [Cpd 62, N-(4-methylphenyl)-2-[2-(trifluoromethyl)imidazo[1,2-a]pyrazin-3-yl]pyrimidin-4-amine] as the molecule, how does the pEC50 read?
Its pEC50 is 7.00 to 8.00.

With `Cc1nc2ccccc2n1-c1nc(N)cc(Nc2ccc(C(F)(F)F)cc2)n1` [Cpd 63, 2-(2-methyl-1H-benzimidazol-1-yl)-N-[4-(trifluoromethyl)phenyl]pyrimidine-4,6-diamine] as the molecule, how does the pEC50 read?
Its pEC50 is 7.00 to 8.00.

With `Cc1nc2cc(F)c(F)cc2n1-c1nc(N)cc(Nc2ccc(C(F)(F)F)cc2)n1` [Cpd 64, 2-(5,6-difluoro-2-methyl-1H-benzimidazol-1-yl)-N-[4-(trifluoromethyl)phenyl]pyrimidine-4,6-diamine] as the molecule, how does the pEC50 read?
The pEC50 was 7.00 to 8.00.

How did the pEC50 turn out when `Nc1cc(Nc2ccc(OC(F)F)cc2)nc(-c2c(C(F)(F)F)nc3ccccn23)n1` [Cpd 65, N-[4-(difluoromethoxy)phenyl]-2-[2-(trifluoromethyl)imidazo[1,2-a]pyridin-3-yl]pyrimidine-4,6-diamine] was run?
Its pEC50 is 7.00 to 8.00.

`Cc1nc2ccc(F)cn2c1-c1nc(N)cc(Nc2ccc(C(F)(F)F)cc2)n1` [Cpd 68, 2-(6-fluoro-2-methylimidazo[1,2-a]pyridin-3-yl)-N-[4-(trifluoromethyl)phenyl]pyrimidine-4,6-diamine] was tested. Which pEC50 did it give?
Its pEC50 is 7.00 to 8.00.

How did the pEC50 turn out when `Cc1nc2ccc(F)cc2n1-c1nc(N)cc(Nc2ccc(C(F)(F)F)cc2)n1` [Cpd 71, 2-(6-fluoro-2-methyl-1H-benzimidazol-1-yl)-N-[4-(trifluoromethyl)phenyl]pyrimidine-4,6-diamine] was run?
The pEC50 was 7.00 to 8.00.

`Cc1nc2ncccc2n1-c1nc(N)cc(Nc2ccc(C(F)(F)F)cc2)n1` [Cpd 73, 2-(2-methyl-1H-imidazo[4,5-b]pyridin-1-yl)-N-[4-(trifluoromethyl)phenyl]pyrimidine-4,6-diamine] was tested. Which pEC50 did it give?
Its pEC50 is 7.00 to 8.00.

How did the pEC50 turn out when `Cc1nc2cc(F)c(F)cc2n1-c1nc(N)cc(Nc2ccc(C(F)(F)F)c(F)c2)n1` [Cpd 74, 2-(5,6-difluoro-2-methyl-1H-benzimidazol-1-yl)-N-[3-fluoro-4-(trifluoromethyl)phenyl]pyrimidine-4,6-diamine] was run?
Its pEC50 is 5.52 to 7.00.

`Cc1cc2nc(C)n(-c3nc(N)cc(Nc4ccc(C(F)(F)F)cc4)n3)c2cc1C` [Cpd 79, N-[4-(trifluoromethyl)phenyl]-2-(2,5,6-trimethyl-1H-benzimidazol-1-yl)pyrimidine-4,6-diamine] was tested. Which pEC50 did it give?
The pEC50 was 5.52 to 7.00.

`Cc1nc2ccccc2n1-c1nc(N)cc(Nc2ccc(C(F)(F)F)c(F)c2)n1` [Cpd 80, N-[3-fluoro-4-(trifluoromethyl)phenyl]-2-(2-methyl-1H-benzimidazol-1-yl)pyrimidine-4,6-diamine] was tested. Which pEC50 did it give?
Its pEC50 is 7.00 to 8.00.

How did the pEC50 turn out when `Nc1cc(Nc2ccc(C(F)(F)F)cc2)nc(-n2c(C3CC3)nc3ccc(F)cc32)n1` [Cpd 82, 2-(2-cyclopropyl-6-fluoro-1H-benzimidazol-1-yl)-N-[4-(trifluoromethyl)phenyl]pyrimidine-4,6-diamine] was run?
Its pEC50 is 7.00 to 8.00.

`Nc1cc(Nc2ccc(C(F)(F)F)cc2)nc(-n2c(C3CC3)nc3cc(F)ccc32)n1` [Cpd 83, 2-(2-cyclopropyl-5-fluoro-1H-benzimidazol-1-yl)-N-[4-(trifluoromethyl)phenyl]pyrimidine-4,6-diamine] was tested. Which pEC50 did it give?
Its pEC50 is 7.00 to 8.00.

With `Nc1cc(Nc2ccc(C(F)(F)F)cc2)nc(-c2c(CO)nc3ccc(F)cn23)n1` [Cpd 84, [3-(4-amino-6-{[4-(trifluoromethyl)phenyl]amino}pyrimidin-2-yl)-6-fluoroimidazo[1,2-a]pyridin-2-yl]methanol] as the molecule, how does the pEC50 read?
Its pEC50 is 5.52 to 7.00.

With `Cc1nc2ccc(Br)cc2n1-c1nc(N)cc(Nc2ccc(C(F)(F)F)cc2)n1` [Cpd 85, 2-(6-bromo-2-methyl-1H-benzimidazol-1-yl)-N-[4-(trifluoromethyl)phenyl]pyrimidine-4,6-diamine] as the molecule, how does the pEC50 read?
The pEC50 was 5.52 to 7.00.

With `Cc1ccc2nc(C)n(-c3nc(N)cc(Nc4ccc(C(F)(F)F)cc4)n3)c2c1` [Cpd 86, 2-(2,6-dimethyl-1H-benzimidazol-1-yl)-N-[4-(trifluoromethyl)phenyl]pyrimidine-4,6-diamine] as the molecule, how does the pEC50 read?
Its pEC50 is 7.00 to 8.00.

How did the pEC50 turn out when `CCc1ccc2nc(C)n(-c3nc(N)cc(Nc4ccc(C(F)(F)F)cc4)n3)c2c1` [Cpd 87, 2-(6-ethyl-2-methyl-1H-benzimidazol-1-yl)-N-[4-(trifluoromethyl)phenyl]pyrimidine-4,6-diamine] was run?
The pEC50 was 5.52 to 7.00.

`Cc1nc2c(F)cc(F)cc2n1-c1nc(N)cc(Nc2ccc(C(F)(F)F)cc2)n1` [Cpd 88, 2-(4,6-difluoro-2-methyl-1H-benzimidazol-1-yl)-N-[4-(trifluoromethyl)phenyl]pyrimidine-4,6-diamine] was tested. Which pEC50 did it give?
Its pEC50 is 7.00 to 8.00.

How did the pEC50 turn out when `Cc1nc2c(F)cc(F)cc2n1-c1nc(N)cc(Nc2ccc(C(F)(F)F)c(F)c2)n1` [Cpd 89, 2-(4,6-difluoro-2-methyl-1H-benzimidazol-1-yl)-N-[3-fluoro-4-(trifluoromethyl)phenyl]pyrimidine-4,6-diamine] was run?
The pEC50 was 5.52 to 7.00.

With `Cc1nc2c(F)cc(F)cc2n1-c1nc(NCCO)cc(Nc2ccc(C(F)(F)F)cc2)n1` [Cpd 90, 2-{[2-(4,6-difluoro-2-methyl-1H-benzimidazol-1-yl)-6-{[4-(trifluoromethyl)phenyl]amino}pyrimidin-4-yl]amino}ethanol] as the molecule, how does the pEC50 read?
The pEC50 was 5.52 to 7.00.

With `C=Cc1ccc2nc(C)n(-c3nc(N)cc(Nc4ccc(C(F)(F)F)cc4)n3)c2c1` [Cpd 91, 2-(6-ethenyl-2-methyl-1H-benzimidazol-1-yl)-N-[4-(trifluoromethyl)phenyl]pyrimidine-4,6-diamine] as the molecule, how does the pEC50 read?
Its pEC50 is 5.52 to 7.00.

`Nc1cc(Nc2ccc(C(F)(F)F)cc2)nc(-n2c(C3CC3)nc3ncc(F)cc32)n1` [Cpd 92, 2-(2-cyclopropyl-6-fluoro-1H-imidazo[4,5-b]pyridin-1-yl)-N-[4-(trifluoromethyl)phenyl]pyrimidine-4,6-diamine] was tested. Which pEC50 did it give?
Its pEC50 is 7.00 to 8.00.

With `Cc1nc2ccc(Cl)cc2n1-c1nc(N)cc(Nc2ccc(C(F)(F)F)cc2)n1` [Cpd 93, 2-(6-chloro-2-methyl-1H-benzimidazol-1-yl)-N-[4-(trifluoromethyl)phenyl]pyrimidine-4,6-diamine] as the molecule, how does the pEC50 read?
The pEC50 was 7.00 to 8.00.

`Cc1nc2ncc(F)cc2n1-c1nc(N)cc(Nc2ccc(C(F)(F)F)cc2)n1` [Cpd 94, 2-(6-fluoro-2-methyl-1H-imidazo[4,5-b]pyridin-1-yl)-N-[4-(trifluoromethyl)phenyl]pyrimidine-4,6-diamine] was tested. Which pEC50 did it give?
Its pEC50 is 7.00 to 8.00.

With `Cc1nc2ccccc2n1-c1nc(N)c(F)c(Nc2ccc(C(F)(F)F)cc2)n1` [Cpd 95, 5-fluoro-2-(2-methyl-1H-benzimidazol-1-yl)-N-[4-(trifluoromethyl)phenyl]pyrimidine-4,6-diamine] as the molecule, how does the pEC50 read?
The pEC50 was 7.00 to 8.00.

How did the pEC50 turn out when `Cc1nc2ccc(Cl)cc2n1-c1nc(N)cc(Nc2ccc(C(F)(F)F)c(F)c2)n1` [Cpd 96, 2-(6-chloro-2-methyl-1H-benzimidazol-1-yl)-N-[3-fluoro-4-(trifluoromethyl)phenyl]pyrimidine-4,6-diamine] was run?
Its pEC50 is 5.52 to 7.00.

With `Cc1nc2ccc(Cl)cc2n1-c1nc(N)cc(Nc2ccc(OC(F)F)cc2)n1` [Cpd 97, 2-(6-chloro-2-methyl-1H-benzimidazol-1-yl)-N-[4-(difluoromethoxy)phenyl]pyrimidine-4,6-diamine] as the molecule, how does the pEC50 read?
Its pEC50 is 7.00 to 8.00.

With `Cc1nc2cc(Cl)ccc2n1-c1nc(N)cc(Nc2ccc(C(F)(F)F)c(F)c2)n1` [Cpd 98, 2-(5-chloro-2-methyl-1H-benzimidazol-1-yl)-N-[3-fluoro-4-(trifluoromethyl)phenyl]pyrimidine-4,6-diamine] as the molecule, how does the pEC50 read?
The pEC50 was 5.52 to 7.00.

Reference: patent US11180483B2, “Substituted reverse pyrimidine Bmi-1 inhibitors” (PTC Therapeutics, Inc., priority 2012, dated 2021)
